In PMC9783183, “Substrate Recognition Properties from an Intermediate Structural State of the UreA Transporter” (International Journal of Molecular Sciences, 2022):
Read-outs that look alike come from different tables or passages of the source.

Columns and labels:
UreA wt = target: T1, UreA wt (Aspergillus nidulans, UniProt Q5BGB2); experiment: [14C]-urea uptake in germinating conidiospores, wt UreA; assay type: cell-based; details: allele wt; for Ki: inhibition of [14C]-urea uptake, Ki from IC50
T1 sequence (Q5BGB2 1-693): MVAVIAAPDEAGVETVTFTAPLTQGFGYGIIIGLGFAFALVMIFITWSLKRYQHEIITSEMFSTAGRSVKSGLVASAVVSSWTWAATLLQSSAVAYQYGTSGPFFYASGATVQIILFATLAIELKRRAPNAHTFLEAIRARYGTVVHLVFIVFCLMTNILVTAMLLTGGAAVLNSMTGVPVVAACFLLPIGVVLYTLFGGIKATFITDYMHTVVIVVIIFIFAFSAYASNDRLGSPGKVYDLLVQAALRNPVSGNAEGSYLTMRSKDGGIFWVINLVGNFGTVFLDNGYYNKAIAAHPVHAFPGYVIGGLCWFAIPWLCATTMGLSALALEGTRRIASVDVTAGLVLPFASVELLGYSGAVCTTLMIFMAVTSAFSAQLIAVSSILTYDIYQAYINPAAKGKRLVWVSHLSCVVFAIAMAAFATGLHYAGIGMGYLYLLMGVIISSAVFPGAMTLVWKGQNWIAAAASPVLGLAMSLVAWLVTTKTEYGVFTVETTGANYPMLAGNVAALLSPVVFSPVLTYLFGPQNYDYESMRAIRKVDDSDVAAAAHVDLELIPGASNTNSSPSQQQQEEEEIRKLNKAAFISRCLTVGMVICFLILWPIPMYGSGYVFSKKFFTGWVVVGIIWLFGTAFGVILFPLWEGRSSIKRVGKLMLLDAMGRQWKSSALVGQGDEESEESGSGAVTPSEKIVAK
Procedure: (§1) Radiolabelled [^14C]-urea (55.0 mCi mmol^−1) was purchased from Moravek Biochemicals, Brea, CA, USA. [^14C]-urea uptake assays were performed in A. nidulans germinating conidiospores. Initial velocities were measured after 2 min of incubation at 37 °C with a [^14C]-urea concentration of 1.0 μΜ, and are expressed as % of the wt value, in pmoles min^−1/10^7 conidiospores. Apparent Km/i values were obtained directly by performing and analyzing [^14C]-urea uptakes (Prism 3.02: Graph Pad Software, Inc., San Diego, CA, USA), from IC50 values in the presence of various concentrations (0.5–3000 μM) of non-labelled substrates, as previously described. […] The Ki values are then calculated from IC50 values, based on the equation: Ki = IC50/[1 + (S/Km)] […] Transport assays were carried out in at least three independent experiments, in triplicates for each concentration or time point. Background uptake values were corrected by subtracting values measured in the deleted mutants (UreAΔ).

UreA W82Y = target: T2, UreA W82Y (Aspergillus nidulans, UniProt Q5BGB2, W82Y); experiment: [14C]-urea uptake in germinating conidiospores, UreA W82Y mutant; details: for Vo (%) initial uptake rate: allele W82Y, % of wt, [14C]-urea 1.0 μM, 2 min, 37 °C
T2 sequence (Q5BGB2 1-693 W82Y): T1 sequence (Q5BGB2 1-693)
Procedure: as §1

UreA W84A = target: T3, UreA W84A (Aspergillus nidulans, UniProt Q5BGB2, W84A); experiment: [14C]-urea uptake in germinating conidiospores, UreA W84A mutant
T3 sequence (Q5BGB2 1-693 W84A): T1 sequence (Q5BGB2 1-693)
Procedure: as §1

UreA W84F = target: T4, UreA W84F (Aspergillus nidulans, UniProt Q5BGB2, W84F); experiment: [14C]-urea uptake in germinating conidiospores, UreA W84F mutant
T4 sequence (Q5BGB2 1-693 W84F): T1 sequence (Q5BGB2 1-693)
Procedure: as §1

UreA W84Y = target: T5, UreA W84Y (Aspergillus nidulans, UniProt Q5BGB2, W84Y); experiment: [14C]-urea uptake in germinating conidiospores, UreA W84Y mutant
T5 sequence (Q5BGB2 1-693 W84Y): T1 sequence (Q5BGB2 1-693)
Procedure: as §1

UreA N279A = target: T6, UreA N279A (Aspergillus nidulans, UniProt Q5BGB2, N279A); experiment: [14C]-urea uptake in germinating conidiospores, UreA N279A mutant
T6 sequence (Q5BGB2 1-693 N279A): T1 sequence (Q5BGB2 1-693)
Procedure: as §1

UreA N279Q = target: T7, UreA N279Q (Aspergillus nidulans, UniProt Q5BGB2, N279Q); experiment: [14C]-urea uptake in germinating conidiospores, UreA N279Q mutant; details: for Vo (%) initial uptake rate: allele N279Q, % of wt, [14C]-urea 1.0 μM, 2 min, 37 °C
T7 sequence (Q5BGB2 1-693 N279Q): T1 sequence (Q5BGB2 1-693)
Procedure: as §1

UreA T282A = target: T8, UreA T282A (Aspergillus nidulans, UniProt Q5BGB2, T282A); experiment: [14C]-urea uptake in germinating conidiospores, UreA T282A mutant; details: for Vo (%) initial uptake rate: allele T282A, % of wt, [14C]-urea 1.0 μM, 2 min, 37 °C
T8 sequence (Q5BGB2 1-693 T282A): T1 sequence (Q5BGB2 1-693)
Procedure: as §1

UreA T282S = target: T9, UreA T282S (Aspergillus nidulans, UniProt Q5BGB2, T282S); experiment: [14C]-urea uptake in germinating conidiospores, UreA T282S mutant; details: for fold drop in affinity: allele T282S vs wt; for Vo (%) initial uptake rate: allele T282S, % of wt, [14C]-urea 1.0 μM, 2 min, 37 °C
T9 sequence (Q5BGB2 1-693 T282S): T1 sequence (Q5BGB2 1-693)
Procedure: as §1

UreA W82F = details: cited from earlier work; for affinity relative to wt (in words): allele W82F vs wt, ref [16]
NC(N)=O = experiment: cells, lysate or membranes; details: 37.0 °C
Procedure: [^14C]-urea uptake assays were performed in A. nidulans germinating conidiospores. Initial velocities were measured after 2 min of incubation at 37 °C with a [^14C]-urea concentration of 1.0 μΜ, and are expressed as % of the wt value, in pmoles min^−1/10^7 conidiospores. Apparent Km/i values were obtained directly by performing and analyzing [^14C]-urea uptakes (Prism 3.02: Graph Pad Software, Inc., San Diego, CA, USA), from IC50 values in the presence of various concentrations (0.5–3000 μM) of non-labelled substrates, as previously described [4, 16, 58]. […] The Ki values are then calculated from IC50 values, based on the equation: Ki = IC50/[1 + (S/Km)] […] Transport assays were carried out in at least three independent experiments, in triplicates for each concentration or time point. Background uptake values were corrected by subtracting values measured in the deleted mutants (UreAΔ). Standard deviation was <20%.

Compound: CC(N)=O [Acetamide, acetamide]
- Ki (UreA wt; read-out: Acetamide Ki): 237 ± 14 µM
- Ki (UreA W82Y): 101 ± 16 µM
- Ki (UreA W84A): 489 ± 39 µM
- Ki (UreA W84F): 524 ± 42 µM
- Ki (UreA W84Y): > 1000 µM
- Ki (UreA N279A): 51 ± 5 µM
- Ki fold lower as compared to the wt (UreA N279A; allele N279A vs wt): ≈ 4.6 fold
- Ki (UreA N279Q): 87 ± 9 µM
- Ki fold lower as compared to the wt (UreA N279Q; allele N279Q vs wt): ≈ 2.7 fold
- Ki (UreA T282A): 361 ± 85 µM
- fold decrease in affinity (UreA T282A; allele T282A vs wt): 1.6 fold
- Ki (UreA T282S): 290 ± 12 µM
- affinity relative to wt (in words) (UreA W82F): augmented
- Ki (UreA W82F; allele W82F, ref Sanguinetti et al. (2014) [8], read-out: Acetamide Ki): 198 ± 12 µM

Compound: UreA N279Q (Aspergillus nidulans FGSC A4; N279Q)
- Km (NC(N)=O; other: allele N279Q): 91 ± 6 µM

Compound: UreA W82Y (Aspergillus nidulans FGSC A4; W82Y)
- Km (NC(N)=O; other: allele W82Y): 42 ± 5 µM

Compound: NC(N)=S [Thiourea, 2-thiourea]
- Ki (UreA wt; read-out: Thiourea Ki): 528 ± 42 µM
- Ki (UreA W82Y): > 1000 µM
- Ki (UreA W84A): > 2000 µM
- Ki (UreA W84F): > 2000 µM
- Ki (UreA W84Y): > 2000 µM
- Ki (UreA N279A): > 1000 µM
- Ki (UreA N279Q): 813 ± 59 µM
- affinity fold lower than that of the wt (UreA N279Q; allele N279Q vs wt): 1.5 fold
- Ki (UreA T282A): > 1000 µM
- fold decrease in affinity (UreA T282A; allele T282A vs wt): 2 fold
- Ki (UreA T282S): > 1000 µM
- fold drop in affinity (UreA T282S): > 2 fold
- affinity relative to wt (in words) (UreA W82F): augmented
- Ki (UreA W82F; allele W82F, ref Sanguinetti et al. (2014) [8], read-out: Thiourea Ki): 447 ± 24 µM

Compound: N=C(N)N [guanidine]
- affinity relative to wt (in words) (UreA W82F): augmented

Compound: UreA T282S (Aspergillus nidulans FGSC A4; T282S)
- Km (NC(N)=O; other: allele T282S): 130 ± 22 µM

Compound: UreA W84A (Aspergillus nidulans FGSC A4; W84A)
- Km (NC(N)=O; other: allele W84A): 193 ± 12 µM

Compound: UreA T282A (Aspergillus nidulans FGSC A4; T282A)
- Km (NC(N)=O; other: allele T282A): 80 ± 27 µM

Compound: UreA W84Y (Aspergillus nidulans FGSC A4; W84Y)
- Km (NC(N)=O; other: allele W84Y): 159 ± 11 µM

Compound: UreA N279A (Aspergillus nidulans FGSC A4; N279A)
- Km (NC(N)=O; other: allele N279A): 30 ± 3 µM

Compound: NC(N)=O [Urea, urea]
- Vo (%) initial uptake rate (UreA wt; % of wt, [14C]-urea 1.0 μM, 2 min, 37 °C): 100%
- drop in urea affinity (UreA W82Y; allele W82Y vs wt): ≈ 50%
- Vo (%) initial uptake rate (UreA W82Y): 25 ± 2%
- Vo (%) initial uptake rate (UreA W82Y; listed as urea): ≈ 25%
- Vo (%) initial uptake rate (UreA W84A; allele W84A, % of wt, [14C]-urea 1.0 μM, 2 min, 37 °C): 20 ± 2%
- Vo (%) initial uptake rate (UreA W84F; allele W84F, % of wt, [14C]-urea 1.0 μM, 2 min, 37 °C): 15 ± 2%
- Vo (%) initial uptake rate (UreA W84Y; allele W84Y, % of wt, [14C]-urea 1.0 μM, 2 min, 37 °C): 46 ± 4%
- Vo (%) initial uptake rate (UreA N279A; allele N279A, % of wt, [14C]-urea 1.0 μM, 2 min, 37 °C): 100 ± 5%
- affinity fold lower than that of the wt (UreA N279Q; allele N279Q vs wt): 3.5 fold
- Vo (%) initial uptake rate (UreA N279Q): 70 ± 3%
- Vo (%) initial uptake rate (UreA N279Q; listed as urea): ≈ 70%
- Km fold lower than that of the wt (UreA T282A; allele T282A vs wt): 3 fold
- Vo (%) initial uptake rate (UreA T282A): 14 ± 2%
- Vo (%) initial uptake rate (UreA T282A; listed as urea): 14%
- fold drop in affinity (UreA T282S): 5 fold
- Vo (%) initial uptake rate (UreA T282S): 65 ± 3%
- Vo (%) initial uptake rate (UreA T282S; listed as urea): ≈ 65%
- affinity relative to wt (in words) (UreA W82F): unchanged
- Vo (%) initial uptake rate (UreA W82F; allele W82F, % of wt, ref Sanguinetti et al. (2014) [8]): 50 ± 8%
- Km (UreA W82F; allele W82F, ref Sanguinetti et al. (2014) [8]): 23 ± 5 µM

Compound: UreA W84F (Aspergillus nidulans FGSC A4; W84F)
- Km (NC(N)=O; other: allele W84F): 96 ± 13 µM
